Tests used:
Format in all cases: cell-based, human
ALAS1 = experiment: qRT-PCR analysis of ALAS1 expression in SHSY5Y cells; settings: 5 mM ALA for 15 hours vs non-treated
Description: (§1) (A) Heme content in SHSY5Y cells non-treated (NT) or treated with 5 mM ALA for 15 hours. Values are expressed as pmol heme/mg protein. Data represent mean±SEM, n=3; *=P<0.05. (B, C) qRT-PCR analysis of the expression of ALAS1 (B) and FLVCR1a (C) in SHSY5Y cells non-treated (NT) or treated with 5 mM ALA for 15 hours. Transcript abundance, normalized to beta-actin mRNA expression, is expressed as a fold increase over a calibrator sample. Data represent mean±SEM, n=4. For statistical analyses, an unpaired Student's t-test was used; *p<0.05. (D) qRT-PCR analysis of the expression of ALAS1 in SKCO1 cells untreated (NT) or treated with 5 mM ALA for 24 hours. Transcript abundance, normalized to beta-actin mRNA expression, is expressed as a fold increase over a calibrator sample. Data represent mean±SEM, n=5. […] Band intensities were measured by densitometry and normalized to beta-actin expression. […] (F) Proliferation of SHSY5Y cells assessed by crystal violet staining at different time points (starting from the day after plating, named “day 0”). Treatment with 5 mM ALA occurred at “day 0” and cells were monitored until the end of the experiment without medium refresh. […] (G) SKCO1 cells viability measured by the CellTiter-Fluor Cell Viability Assay (Promega, Madison, WI USA, catalog n°G6080) at different time points, starting from the day after plating (named “day 0”), as a readout of cell proliferation. […]

SKCO1 cells = SKCO1 cells viability (CellTiter-Fluor) as readout of proliferation; settings: 5 mM ALA at day 0, no medium refresh
Description: as §1

BTECs = experiment: Heme content in BTECs; settings: FLVCR1a knockdown vs scramble shRNA BTECs
Source text: (A) Frequency (%) of patient tumors with overexpression of FLVCR1 compared to their matched normal tissues across multiple cancer types. The number of patients showing tumor FLVCR1 overexpression relative to the total number of patients examined are indicated in the plot. Data derive from the BioXpress (Wan et al., 2015). […] Transcript abundance, normalized to beta-actin mRNA expression (for SHSY-5Y cells) or to 18s mRNA (for BTECs), is expressed as a fold increase over a calibrator sample. Data represent mean±SEM, n=4. For statistical analyses, an unpaired Student's t-test was used; ***p<0.001. (C, E) Western blot analysis of FLVCR1a expression in SHSY-5Y cells (C) and BTECs (E). […] Band intensities were measured by densitometry and normalized to vinculin expression. […] Values are expressed as pmol heme/mg protein. […] Values are expressed as pmol heme/mg protein. […]
Intracellular heme concentration was measured using a fluorescence assay, as previously reported (Sinclair et al., 2001). […] Fluorescence (wavelength: excitation 405 nm-emission 660-720 nm) of the resultant protoporphyrin was assessed on a Glomax Multi Detection System (Promega Corporation, Madison WI, USA).
The endogenous protoporphyrin content (measured in parallel unheated samples in oxalic acid) was subtracted. […] Results were expressed as relative fluorescence intensity or, alternatively, as pmol of heme/mg total protein.

| Molecule | ALAS1 transcript levels (ALAS1) | cell proliferation (cell viability) (SKCO1 cells) | heme levels at the steady state (BTECs) |
| --- | --- | --- | --- |
| Cl.NCC(=O)CCC(=O)O [5-ALA, 5-Aminolevulinic acid hydrochloride] | reduced | Reduced proliferation | – |
| FLVCR1a shRNA: shRNA specifically down-regulating FLVCR1a without targeting FLVCR1b; pLKO.1 lentiviral clone TRCN0000059599, antisense SEQ ID No.: 2 (antisense TTGCTAATGATGCTGTACTGG; sense CCAGTACAGCATCATTAGCAA) | – | – | increased heme levels |

Source: US20240285670A1, “THERAPEUTIC TREATMENT OF TUMORS BY BLOCKING THE HEME SYNTHESIS-EXPORT AXIS” (Università degli Studi di Torino, priority 2021, published 2024)
